Laboratory results: USRE44017E1, “N-acetyl aldosamines, N-acetylamino acids and related N-acetyl compounds and their topical use” (priority 1999, dated 2013)
“And” between values parts separate entries of the source, which are not always exact repeats. Identical values can stand only once.

Columns and labels:
[1] = tested on: forearm skin; experiment: Skin thickness of treated forearm measured by micrometer calipers; assay type: in vivo, human; conditions: for increase in skin thickness: topically twice daily, treated forearm, no change in untreated forearm; for appearance of treated forearm: twice daily, untreated forearm still loose, thin and wrinkled
Method: In one of the studies related to skin changes associated with aging, skin thickness was measured by micrometer calipers as follows: The skin was grasped with a 2×6 cm metal hinge, the internal faces of the hinge were coated with emery cloth to prevent slippage, and manually squeezed to threshold subject discomfort. Combined thickness of two whole-skin layers including thickness of the two hinge leaves was measured with micrometer calipers. Thickness of the two hinge leaves was subtracted to determine the actual thickness of two whole-skin layers. Triplicate measurements on treated site were done and an average number was used for calculation of the skin thickness.

[2] = tested on: itch / pruritus; experiment: Topical application to itchy skin or scalp lesions of single subjects; assay type: in vivo, human; conditions: person
Method: A subject, having an itchy lesion of lichen simplex chronicus on their right lower leg topically applied the above cream to the lesion.
A typical composition suitable for topical use on hair, scalp, nail and skin comprising for example N-acetylamino acid may be formulated as follows. N-Acetyl-DL-proline 2 g was dissolved in 98 ml solution prepared from water 40 ml, ethanol 40 ml and propylene glycol 20 ml. The composition with pH 2.7 contained 2% N-acetyl-DL-proline. A subject, having itchy scalp topically applied the above composition to itchy area of scalp.
N-Acetyl-L-lysine 2 g was dissolved in a 98 ml solution prepared from water 40 ml, ethanol 40 ml and propylene glycol 20 ml. The composition with pH 6.5 contained 2% N-acetyl-L-lysine. A subject, having an oily and pruritic scalp topically applied the above composition to the affected area of the scalp, and the area was dried with warm air to remove excess solvents.
The subject topically applied N-acetyl-DL-proline 5% in oil-in-water cream to the itchy lesions.
A subject with chronic nummular eczema and pruritic dry skin topically applied N-acetyl-DL-proline 5% in solution to itchy skin areas of eczema and dry skin lesions.
A subject, having axillary itch due to use of a conventional antiperspirant topically applied N-acetyl-DL-proline 5% in solution to itchy underarm skin areas.
The subject topically applied N-acetyl-L-glutamine 5% in a solution prepared from water 4 parts, ethanol 4 parts and propylene glycol 2 parts by volume.
The subject topically applied N-acetyl-α-D-glucosamine 5% in a solution prepared from water 4 parts, ethanol 4 parts and propylene glycol 2 parts by volume.

[3] = tested on: forearm skin (epidermis, papillary dermis); experiment: Biological effects of topically applied N-acetyl compound on skin: test chambers on forearm, punch biopsy, histochemical staining; assay type: in vivo, human; conditions: 2% solution in water/propylene glycol, occlusive test chambers renewed twice weekly, five weeks
Method: In order to determine biological effects of a topically applied N-acetyl compound of the instant invention, seven women and one person of ages ranging from 58 to 81 years participated in this study. Topical formulation for the study was N-acetyl-L-cysteine 2% in a solution prepared from water 80 ml and propylene glycol 20 ml. Test sites were 1 cm square sites on extensor surface of forearm, 5 cm from the antecubital crease, a grid pattern formed by Hayes Test Chambers on Hayes adhesive strips. Each test chamber, 1 cm square, contained a square piece of filter paper which was fully moistened with 0.033 ml test solution. Test chambers were impressed on the skin to leave outlines which were marked with Sanford Sharpie permanent marker. Sites were re-marked at each successive application of test solutions. Vehicle control sites were on the opposite forearm. Filter paper of each chamber was saturated with 0.033 ml solution and chambers were fixed in place with the Hayes adhesive tape that held the test and vehicle chambers. […] Punch biopsy specimens, 3 mm or 4 mm in diameter, were secured at the end of the study, and specimens were processed and analyzed. […] Epidermal thickness was measured with Micro Image Analysis System, and the mean thickness was expressed as area of epidermis/horizontal length. The thickness of papillary dermis (upper dermis) was also measured.

[4] = ordinary storage conditions; results in a malodorous smell; cited from earlier work
[5] = tested on: adolescent acne with multiple papules and pustules on face; experiment: Topical treatment of acne; assay type: in vivo, human; conditions: 5% solution, twice daily, after a few days, subject
Source text: A subject who had adolescent acne with multiple papules and pustules on their face applied topically twice daily 5% N-acetyl-glucosamine solution.

[6] = tested on: xerosis and dry skin on lower legs; experiment: Topical treatment of xerosis and dry skin; assay type: in vivo, human; conditions: 5% cream, twice daily, one week, subject
Source text: A subject who had xerosis and dry skin on lower legs topically applied twice daily 5% N-acetyl-glucosamine cream for one week. After a few days of topical treatment, the skin became less rough and scaly, and felt smooth.

[7] = tested on: photodamaged / photoaged skin; conditions: cited from earlier work
[8] = 5% cream, three weeks, one subject per value
[9] = 2% solution (water/ethanol/propylene glycol), pH 2.7, itchy scalp
[10] = 5% in oil-in-water cream, chronic Grover's Disease
[11] = 5% in solution, axillary itch due to antiperspirant
[12] = 5% in solution, chronic nummular eczema and pruritic dry skin
[13] = 10% cream, three weeks, one subject per value
[14] = 5% in solution, acute urticaria
[15] = 10% cream, four weeks, one subject per value
[16] = 5% in solution of water 4, ethanol 4, propylene glycol 2 parts, chronic Grover's Disease
[17] = 2% solution, pH 6.5, oily and pruritic scalp
[18] = 0.1% cream, topical application for 8 to 12 months (Weiss et al., JAAD 1988)

CC(=O)NC1CCSC1=O (racemic) [N-acetyl-DL-homocysteine thiolactone]
increase in skin thickness [1, 8]: 89% and 21%
appearance of treated forearm ([1]; 5% cream, three weeks): more firm, smooth, plump and minimally wrinkled when lifted

CC(=O)N1CCCC1C(=O)O (racemic) [N-acetyl-DL-proline]
scalp itch a few minutes after topical application [2, 9]: disappeared completely
time scalp remained free of itch [2, 9]: 24 h
severe itch a few minutes after topical application [2, 10]: disappeared completely
time lesions remained free of itch [2, 10]: 12 h
itch within a few minutes after topical application [2, 11]: disappeared completely
time skin remained free of itch [2, 11]: five
itch a few minutes after topical application [2, 12]: disappeared completely
time lesions remained free of itch [2, 12]: 48 h

CC(=O)NC(Cc1c[nH]c2ccccc12)C(=O)O (racemic) [N-acetyl-DL-tryptophan]
increase in skin thickness ([1]; 10% cream, five weeks, one subject): 12%
increase in skin thickness [1, 13]: 11% and 21%
appearance of treated forearm ([1]; 10% cream, five weeks): more firm, smooth, plump and minimally wrinkled when lifted
appearance of treated forearm ([1]; 10% cream, three weeks): more firm, smooth, plump and minimally wrinkled when lifted

CC(=O)N[C@H]1C(O)O[C@H](CO)[C@H](O)[C@@H]1O (stereo partly drawn) [N-acetyl-D-galactosamine]
effect on urticarial lesions [2, 14]: concomitant disappearance of urticarial lesions
severe itch a few minutes after topical application [2, 14]: disappeared completely
time skin remained free of itch [2, 14]: 24 h

CC(=O)N[C@@H](CCCNC(=N)N)C(=O)O [N-acetyl-L-arginine]
increase in skin thickness [1, 15]: 32% and 22%
appearance of treated forearm ([1]; 10% cream, four weeks): more firm, smooth, plump and minimally wrinkled when lifted

COC(=O)[C@H](CS)NC(C)=O [N-acetyl-L-cysteine methyl ester]
increase in skin thickness [1, 8]: 13% and 87%
appearance of treated forearm ([1]; 5% cream, three weeks): more firm, smooth, plump and minimally wrinkled when lifted
increase in skin thickness [1, 13]: 26%
appearance of treated forearm ([1]; 10% cream, three weeks): more firm, smooth, plump and minimally wrinkled when lifted

CC(=O)N[C@@H](CS)C(=O)O [N-acetyl-L-cysteine]
average increase in thickness of epidermis over the control ([3]; 8 subjects aged 58 to 81, vehicle control on opposite forearm): 96%
increase in production of hyaluronic acid in papillary dermis over the control ([3]; all test sites): 47-227%
increase in skin thickness [1, 8]: 14%
appearance of treated forearm ([1]; 5% cream, three weeks): more firm, smooth, plump and minimally wrinkled when lifted
stability on storage [4]: degrade under ordinary storage conditions

CC(=O)N[C@@H](CCC(N)=O)C(=O)O [N-acetyl-L-glutamine]
severe itch a few minutes after topical application [2, 16]: disappeared completely
time lesions remained free of itch [2, 16]: 24 h

CC(=O)N[C@@H](CCCCN)C(=O)O [N-acetyl-L-lysine]
scalp itch a few minutes after topical application [2, 17]: disappeared completely
time scalp remained free of itch [2, 17]: 12 h

CCOC(=O)[C@H](Cc1ccc(O)cc1)NC(C)=O [N-acetyl-L-tyrosine ethyl ester]
increase in skin thickness [1, 15]: 11% and 34%
appearance of treated forearm ([1]; 10% cream, four weeks): more firm, smooth, plump and minimally wrinkled when lifted

CC(=O)N[C@@H]1[C@@H](O)[C@H](O)[C@@H](CO)O[C@@H]1O [N-acetyl-glucosamine, N-Acetyl-α-D-glucosamine]
severe itch a few minutes after topical application [2, 16]: disappeared completely
time lesions remained free of itch [2, 16]: 24 h
effect on acne lesions [5]: most lesions became less inflamed and gradually eradicated
effect on xerosis and dry skin [6]: returned to normal-looking skin
increase in skin thickness [1, 13]: 37%
appearance of treated forearm ([1]; 10% cream, three weeks): more firm, smooth, plump and minimally wrinkled when lifted

CC1=C(/C=C/C(C)=C/C=C/C(C)=C/C(=O)O)C(C)(C)CCC1 [tretinoin]
effect on photodamaged skin ([7]; 0.05% in a cream, daily topical application (Kligman et al. 1986)): improve photodamaged skin
effect on aging skin [7, 18]: improve clinical signs of aging skin
side effects [7, 18]: burning sensation in the eyes and mild skin irritations
patients encountering dermatitis (side-effect) ([7]; 0.1%, daily topical application, 16 weeks (Weiss et al., JAMA 1988)): 92%
effect on photoaged skin ([7]; 0.1%, daily topical application, 16 weeks, compared to vehicle alone (Weiss et al., JAMA 1988)): improve photoaged skin
